Experimental data taken from patent publication US9278990B2, “Substituted nucleotide analogs” (priority 2010, dated 2016).
Like-named read-outs stand apart in the source and are kept apart here.

Experiments:
[1] = system: HCV genotype 1b HCV replicon harbored in Huh7 cells; test: Combination testing in HCV replicon (CalcuSyn CI and MacSynergy II synergy volume); type: cell-based; settings: combination of compound 3b with the listed combination compound; MacSynergy II (Bliss independence); 72 h; 25-100 synergistic, >100 strongly synergistic
Description: Two or more test compounds were tested in combination with each other using an HCV genotype 1b HCV replicon harbored in Huh7 cells with a stable luciferase (LUC) reporter. Cells were cultured under standard conditions in Dulbecco's modified Eagle's medium (DMEM; Mediatech Inc, Herndon, Va.) containing 10% heat-inactivated fetal bovine serum (FBS; Mediatech Inc, Herndon, Va.) 2 mM L-glutamine, and nonessential amino acids (JRH Biosciences). HCV replicon cells were plated in a 96-well plate at a density of 10^4 cells per well in DMEM with 10% FBS. […] The cells were incubated with no compound as a control, with the test compounds, or the combination of compounds for 72 h. The direct effects of the combination of the test compounds were examined using a luciferase (LUC) based reporter as determined by the Bright-Glo Luciferase Assay (Promega, Madison, Wis.). Dose-response curves were determined for individual compounds and fixed ratio combinations of two or more test compounds.
The effects of test compound combinations were evaluated by two separate methods. In the Loewe additivity model, the experimental replicon data was analyzed by using CalcuSyn (Biosoft, Ferguson, Mo.), a computer program based on the method of Chou and Talalay. The program uses the experimental data to calculate a combination index (CI) value for each experimental combination tested. A CI value of <1 indicates a synergistic effect, a CI value of 1 indicates an additive effect, and a CI value of >1 indicates an antagonistic effect.
The second method utilized for evaluating combination effects used a program called MacSynergy II. MacSynergy II software was kindly provided by Dr. M. Prichard (University of Michigan). The Prichard Model allows for a three-dimensional examination of drug interactions and a calculation of the synergy volume (units: μM^2 %) generated from running the replicon assay using a checkerboard combination of two or more inhibitors. The volumes of synergy (positive volumes) or antagonism (negative volumes) represent the relative quantity of synergism or antagonism per change in the concentrations of the two drugs. Synergy and antagonism volumes are defined based on the Bliss independence model. In this model, synergy volumes of less than −25 indicate antagonistic interactions, volumes in the −25-25 range indicate additive behavior, volumes in the 25-100 range indicate synergistic behavior and volumes >100 indicate strong synergistic behavior.

[2] = target: T1, NS5B570-Con1 (Delta-21) (Hepatitis C virus genotype 1b, UniProt Q9WMX2); test: NS5B inhibition assay; type: biochemical, HCV
T1 construct: NS5B570-Con1 (Delta-21)
Description: The enzyme activity of NS5B570-Con1 (Delta-21) was measured as an incorporation of tritiated NMP into acid-insoluble RNA products. The complementary IRES (cIRES) RNA sequence was used as a template, corresponding to 377 nucleotides from the 3′-end of HCV (−) strand RNA of the Con-1 strain, with a base content of 21% Ade, 23% Ura, 28% Cyt, and 28% Gua. The cIRES RNA was transcribed in vitro using a T7 transcription kit (Ambion, Inc.) and purified using the Qiagen RNeasy maxi kit. HCV polymerase reactions contained 50 nM NS5B570-Con1, 50 nM cIRES RNA, about 0.5 μCi tritiated NTP, 1 μM of competing cold NTP, 20 mM NaCl, 40 mM Tris-HCl (pH 8.0), 4 mM dithiothreitol, and 4 mM MgCl2. Standard reactions were incubated for 2 hours at 37° C., in the presence of increasing concentration of inhibitor. At the end of the reaction, RNA was precipitated with 10% TCA, and acid-insoluble RNA products were filtered on a size exclusion 96-well plate. After washing of the plate, scintillation liquid was added and radio labeled RNA products were detected according to standard procedures with a Trilux Topcount scintillation counter.

[3] = system: Huh-7 cells containing the self-replicating, subgenomic HCV replicon; test: HCV replicon assay (luciferase reporter); type: cell-based; settings: Hepatitis C virus, Huh-7, 72 h
Description: Huh-7 cells containing the self-replicating, subgenomic HCV replicon with a stable luciferase (LUC) reporter were cultured in Dulbecco's modified Eagle's medium (DMEM) containing 2 mM L-glutamine and supplemented with 10% heat-inactivated fetal bovine serum (FBS), 1% penicillin-streptomyocin, 1% nonessential amino acids, and 0.5 mg/mL G418.
On the first day, 5,000 HCV replicon cells were plated per well in a 96-well plate. On the following day, test compounds were solubilized in 100% DMSO to 100× the desired final testing concentration. Each compound was then serially diluted (1:3) up to 9 different concentrations. Compounds in 100% DMSO are reduced to 10% DMSO by diluting 1:10 in cell culture media. The compounds were diluted to 10% DMSO with cell culture media, which were used to dose the HCV replicon cells in 96-well format. The final DMSO concentration was 1%. The HCV replicon cells were incubated at 37° C. for 72 hours. At 72 hours, cells were processed when the cells are still subconfluent. Compounds that reduce the LUC signal are determined by Bright-Glo Luciferase Assay (Promega, Madison, Wis.). Percent Inhibition was determined for each compound concentration in relation to the control cells (untreated HCV replicon) to calculate the EC50.

[4] = IC50 value, incorporation of tritiated NMP into acid-insoluble RNA, 2 hours at 37° C.

Row | Molecule | Synergy Volume [1] | also measured
1 | CC(C)OC(=O)[C@H](C)NP(=O)(OC[C@H]1O[C@@H](n2ccc(=O)[nH]c2=O)[C@](C)(F)[C@@H]1O)Oc1ccccc1 (stereo partly shown) [PSI-7851] | 0 μM^2% | 
2 | C[C@@]1(F)[C@H](O)[C@@H](CO)O[C@H]1n1ccc(N)nc1=O [PSI-6130] | 15 μM^2% | 
3 | C[C@@]1(O)[C@H](O)[C@@H](COP(O)(=S)OP(=O)(O)OP(=O)(O)O)O[C@H]1n1ccc(=O)[nH]c1=O (single isomer, unassigned) [Compound 5a] |  | IC50 [2, 4]: 10000 to 100000 nM
4 | COc1nc(N)nc2c1ncn2[C@@H]1O[C@H](COP(=O)(N[C@@H](C)C(=O)OCC(C)(C)C)Oc2cccc3ccccc23)[C@@H](O)[C@@]1(C)O (stereo partly shown) [INX-189] | 65 μM^2% | 
5 | CC(C)(C)C#Cc1cc(N(C(=O)[C@H]2CC[C@H](C)CC2)[C@H]2CC[C@H](O)CC2)c(C(=O)O)s1 [VX-222] | 38 μM^2% | 
6 | CCC[C@H](NC(=O)[C@@H]1[C@H]2CCC[C@H]2CN1C(=O)[C@@H](NC(=O)[C@@H](NC(=O)c1cnccn1)C1CCCCC1)C(C)(C)C)C(=O)C(=O)NC1CC1 [VX-950, Telaprevir] | 76 μM^2% | 
7 | COc1ccc2c(O[C@@H]3C[C@H]4C(=O)N[C@]5(C(=O)NS(=O)(=O)C6CC6)C[C@H]5/C=C\CCCCN(C)C(=O)[C@@H]4C3)cc(-c3nc(C(C)C)cs3)nc2c1C [TMC-435] | 126 μM^2% | 
8 | C[C@@]1(O)[C@H](O)[C@@H](COP(O)(=S)OP(=O)(O)OP(=O)(O)O)O[C@H]1n1cnc2c(=O)[nH]c(N)nc21 (single isomer, unassigned) [Compound 5g] |  | IC50 [2, 4]: < 1000 nM
9 | C[C@@]1(F)[C@H](O)[C@@H](COP(O)(=S)OP(=O)(O)OP(=O)(O)O)O[C@H]1n1ccc(=O)[nH]c1=O (single isomer, unassigned) [Compound 5d] |  | IC50 [2, 4]: 10000 to 100000 nM
10 | C[C@@]1(F)[C@H](O)[C@@H](COP(O)(=S)OP(=O)(O)OP(=O)(O)O)O[C@H]1n1ccc(=O)[nH]c1=O (single isomer, unassigned) [Compound 5c] |  | IC50 [2, 4]: 1000 to 10000 nM
11 | C[C@@]1(O)[C@H](O)[C@@H](COP(O)(=S)OP(=O)(O)OP(=O)(O)O)O[C@H]1n1cnc2c(=O)[nH]c(N)nc21 (single isomer, unassigned) [Compound 5h] |  | IC50 [2, 4]: 1000 to 10000 nM
12 | NC(=O)c1ncn([C@@H]2O[C@H](CO)[C@@H](O)[C@H]2O)n1 [Ribavirin, ribavirin] | 22 μM^2% | 
13 | C[C@@]1(F)[C@H](O)[C@@H](COP(O)(=S)OP(=O)(O)OP(=O)(O)O)O[C@H]1n1cnc2c(=O)[nH]c(N)nc21 (single isomer, unassigned) [Compound 5f] |  | IC50 ([2]; read-out: IC50 value, incorporation of tritiated NMP into acid-insoluble RNA, 2 hours at 37° C.): < 1000 nM
14 | CCOc1nc(N)nc2c1ncn2[C@@H]1O[C@@H]2COP(=O)(OC(C)C)O[C@H]2[C@@]1(C)F (stereo partly shown) [PSI-938] | 27 μM^2% | 
15 | Fc1ccccc1-c1nc2ccn(Cc3ccc(-c4ccc(C(F)(F)F)cc4C(F)(F)F)nn3)cc-2n1 [GS-9190] | 79 μM^2% | 
16 | CCc1cc(CC[C@]2(C3CCCC3)CC(O)=C(Cc3nc4nc(C)cc(C)n4n3)C(=O)O2)cc(CC)n1 [Filibuvir] | 23 μM^2% | 
17 | CNC(=O)c1c(-c2ccc(F)cc2)oc2cc(N(CCO)S(C)(=O)=O)c(C3CC3)cc12 [HCV-796] | 31 μM^2% | 
18 | C[C@@]1(O)[C@H](O)[C@@H](COP(O)(=S)OP(=O)(O)OP(=O)(O)O)O[C@H]1n1ccc(=O)[nH]c1=O (single isomer, unassigned) [Compound 5b] |  | IC50 [2, 4]: < 1000 nM
19 | COC(=O)N[C@H](C(=O)N1CCC[C@H]1c1nc(-c2ccc(-c3ccc(-c4c[nH]c([C@@H]5CCCN5C(=O)[C@@H](NC(=O)OC)C(C)C)n4)cc3)cc2)c[nH]1)C(C)C [BMS-790052] | 26 μM^2% | 
20 | COc1ccc2c(O[C@@H]3C[C@H]4C(=O)N[C@]5(C(=O)O)C[C@H]5/C=C\CCCCC[C@H](NC(=O)OC5CCCC5)C(=O)N4C3)cc(-c3csc(NC(C)C)n3)nc2c1 [BILN-2061] | 31 μM^2% | 
21 | C[C@@]1(F)[C@H](O)[C@@H](COP(O)(=S)OP(=O)(O)OP(=O)(O)O)O[C@H]1n1cnc2c(=O)[nH]c(N)nc21 (single isomer, unassigned) [Compound 5e] |  | IC50 [2, 4]: < 1000 nM
22 | CC(C)(C)OC(=O)N[C@H]1CCCCC/C=C\[C@@H]2C[C@@]2(C(=O)NS(=O)(=O)C2CC2)NC(=O)[C@@H]2C[C@@H](OC(=O)N3Cc4cccc(F)c4C3)CN2C1=O [ITMN-191] | 126 μM^2% | 
23 | CSCC[C@H](NP(=S)(OC[C@H]1O[C@@H](n2ccc(=O)[nH]c2=O)[C@](C)(O)[C@@H]1O)Oc1ccccc1)C(=O)OC(C)C (stereo partly shown) |  | EC50 [3]: 1000 to 10000 nM
24 | COc1ccc(OP(=S)(N[C@@H](C)C(=O)OC(C)C)OC[C@H]2O[C@@H](n3ccc(=O)[nH]c3=O)[C@](C)(O)[C@@H]2O)cc1 (stereo partly shown) |  | EC50 [3]: < 1000 nM
25 | CC(C)OC(=O)[C@H](C)NP(=S)(OC[C@H]1O[C@@H](n2ccc(=O)[nH]c2=O)[C@](C)(OC(=O)C(C)C)[C@@H]1OC(=O)C(C)C)Oc1ccccc1 (stereo partly shown) |  | EC50 [3]: < 1000 nM
26 | IFN-Lambda 1 (protein, UniProt Q8IU54 20-200, looked up) Interferon lambda-1: GPVPTSKPTTTGKGCHIGRFKSLSPQELASFKKARDALEESLKLKNWSCSSPVFPGNWDLRLLQVRERPVALEAELALTLKVLEAAAGPALEDVLDQPLHTLHHILSQLQACIQPQPTAGPRPRGRLHHWLHRLQEAPKKESAGCLEASVTFNLFRLLTRDLKYVADGNLCLRTSTHPEST | 116 μM^2% | 
27 | IFN-Lambda 2 (protein, UniProt Q8IZJ0 26-200, looked up) Interferon lambda-2: VPVARLHGALPDARGCHIAQFKSLSPQELQAFKRAKDALEESLLLKDCRCHSRLFPRTWDLRQLQVRERPMALEAELALTLKVLEATADTDPALVDVLDQPLHTLHHILSQFRACIQPQPTAGPRTRGRLHHWLYRLQEAPKKESPGCLEASVTFNLFRLLTRDLNCVASGDLCV | 34 μM^2% | 
28 | IFN-Lambda 3 (protein, UniProt Q8IZI9 22-196, looked up) Interferon lambda-3: VPVARLRGALPDARGCHIAQFKSLSPQELQAFKRAKDALEESLLLKDCKCRSRLFPRTWDLRQLQVRERPVALEAELALTLKVLEATADTDPALGDVLDQPLHTLHHILSQLRACIQPQPTAGPRTRGRLHHWLHRLQEAPKKESPGCLEASVTFNLFRLLTRDLNCVASGDLCV | 35 μM^2% | 
